Assay [1] has as its target inactive, unphosphorylated (0-phos), human IRAK4 FL (Full Length) (Homo sapiens (Human), UniProt Q9NWZ3). The experiment in a line: IRAK4 Enzymatic DELFIA Assay, Protocol B. Type of assay: biochemical. The following applies: 600 μM ATP (KM), full-length recombinant human IRAK4. On the procedure: IRAK4 Enzymatic DELFIA Assay, Protocol B.
The test compound is solubilized in DMSO to a stock concentration of 30 mM. The dose response plates were prepared with a 4 mM primary compound concentration, serialized in DMSO and spotted (1 μL) into 384-well polypropylene plates as before.
20 uL of 20 mM HEPES pH=7.5, 5 mM MgCl2, 0.0025% Brij-35, 600 μM ATP, and 100 nM ERM-biotinylated peptide (AGAGRDKYKTLRQIR) was added to start the reaction, which was run for 90 minutes at RT and stopped by the addition of 20 μL 0.3M EDTA.
(§1) 50 μL of the reaction mixture was transferred to a streptavidin-coated detection plate (DELFIA streptavidin coated plates, 384-well, white plates, Perkin-Elmer Life Sciences) and incubated for 30 minutes at RT. The plates were washed 4× with 75 μL per well of PBS containing 0.05% Tween-20. Plates were then incubated with 50 μL per well of antibody cocktail of Anti-pERM antibody at 0.125 μg/mL (Cell Signaling Technology), plus Anti-Rabbit IgG EuN1 at 0.25 μg/ml (Perkin-Elmer Life Sciences) in a solution of 10 mM MOPS pH=7.5, 150 mM NaCl, 0.05% Tween-20, 0.02% NaN3, 1% BSA, 0.1% Gelatin for 45 minutes. The plates were then washed as before. 50 μL per well of DELFIA Enhancement Solution (Perkin-Elmer Life Sciences) was added to the plate and incubated for 15 minutes at RT prior to being read on an Envision Model 2104 multi-label reader using a 340 nm excitation wavelength and a […] emission wavelength for detection.

Assay [2] concerns the target human IRAK4 FL (Full Length), phosphorylated (Homo sapiens (Human), UniProt Q9NWZ3). The experiment in a line: IRAK4 Enzymatic DELFIA Assay, Protocol A. The following applies: 600 μM ATP (KM); full-length phosphorylated recombinant human IRAK4. It counts as biochemical. The method, then:
IRAK4 Enzymatic DELFIA Assay, Protocol A.
This is an in vitro assay to measure IRAK4 enzymatic activity utilizing the DELFIA (Dissociation-Enhanced Lanthanide Fluorescent Immunoassay, Perkin-Elmer) platform, with the human IRAK4 FL (Full Length) construct to characterize IRAK4 inhibitor and control compounds at 600 μM ATP (KM). The final amount of enzyme in the assay is 0.1 nM IRAK4 FL, final concentration of substrate is 50 nM, and final concentration of DMSO is 2.5%.
The test compound was solubilized in DMSO to a stock concentration of 30 mM. The dose response plates were prepared with a 4 mM primary compound concentration (40-fold multiple of the final in-assay concentration), and diluted in DMSO in a four-fold series for a total of 11 data points. 1 μL of the compound dilution plate is spotted into ultra-clear polypropylene, 384-well, U-bottom plates (Corning Life Sciences).
To begin the assay, 19 μL of reaction mixture containing 20 mM HEPES pH=7.5, 5 mM MgCl2, 0.0025% Brij-35, 600 μM ATP, 0.21 nM Full-length phosphorylated recombinant human IRAK4 (GenBank ID AF445802) are aliquoted into the polypropylene, 384-well, U-bottom plates containing 1 μL of test compound, mixed briefly and incubated for 20 minutes at room temperature (RT). Then, 20 μL of 20 mM HEPES pH=7.5, 5 mM MgCl2, 0.0025% Brij-35, 600 μM ATP, and 100 nM ERM-biotinylated peptide (AGAGRDKYKTLRQIR) is added to start the reaction. The reaction is incubated for 60 minutes at RT and stopped by the addition of 20 μL 0.3M EDTA.
as §1

Chain of inactive, unphosphorylated (0-phos), human IRAK4 FL (Full Length) (Q9NWZ3 whole entry): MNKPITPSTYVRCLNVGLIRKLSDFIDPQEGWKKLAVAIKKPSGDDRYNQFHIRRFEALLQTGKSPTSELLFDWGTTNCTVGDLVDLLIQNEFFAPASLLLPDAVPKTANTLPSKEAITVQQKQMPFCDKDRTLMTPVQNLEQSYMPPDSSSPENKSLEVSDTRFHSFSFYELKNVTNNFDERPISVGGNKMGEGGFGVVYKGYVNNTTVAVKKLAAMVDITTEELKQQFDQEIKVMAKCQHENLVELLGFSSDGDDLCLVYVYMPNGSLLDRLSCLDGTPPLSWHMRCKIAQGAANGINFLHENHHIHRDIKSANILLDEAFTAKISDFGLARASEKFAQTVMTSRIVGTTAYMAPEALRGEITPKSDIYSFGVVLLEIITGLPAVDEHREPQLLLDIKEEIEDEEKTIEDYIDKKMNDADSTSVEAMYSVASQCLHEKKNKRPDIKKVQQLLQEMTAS
Chain of human IRAK4 FL (Full Length), phosphorylated (Q9NWZ3 whole entry): as above

For orientation: IC50 means the midpoint of a concentration-inhibition curve. As for `CC(C)Oc1cc2c(OC[C@H]3NC(=O)[C@H](F)C34CC4)nccc2cc1C(N)=O` [Example 17, 1-(((4S,7R)-7-fluoro-6-oxo-5-azaspiro[2.4]heptan-4-yl)methoxy)-7-isopropoxyisoquinoline-6-carboxamide], the IC50 in assay [1] amounted to 1.2 nM; in assay [2], 20.7 nM.

`CC(C)Oc1cc2c(OC[C@@H]3NC(=O)[C@@H](F)C34CC4)nccc2cc1C(N)=O` [Example 16, 1-(((4R,7S)-7-fluoro-6-oxo-5-azaspiro[2.4]heptan-4-yl)methoxy)-7-isopropoxyisoquinoline-6-carboxamide]: the IC50 in assay [1] is 390 nM; in assay [2], 4500 nM.

On to `CC(C)Oc1cc2c(OC[C@@H]3CCC(=O)N3)ncc(-c3ncco3)c2cc1C(N)=O` [Example 2, 4-(1,3-Oxazol-2-yl)-1-{[(2S)-5-oxopyrrolidin-2-yl]methoxy}-7-(propan-2-yloxy)isoquinoline-6-carboxamide], for which the IC50 in assay [1] amounted to 4 nM; in assay [2], 188 nM.

Turning to `CC[C@@H]1[C@H](F)C(=O)N[C@@H]1COc1cncc2cc(C(N)=O)c(OC)cc12` [Example 26, 4-(((2S,3S,4S)-3-ethyl-4-fluoro-5-oxopyrrolidin-2-yl)methoxy)-6-methoxyisoquinoline-7-carboxamide], the IC50 in assay [1] is 0.3 nM; in assay [2], 7.7 nM.

`Cc1c[nH]c(-c2cnc(OC[C@@H]3CCC(=O)N3)c3cc(OC(C)C)c(C(N)=O)cc23)n1` [Example 3, 4-(4-Methyl-1H-imidazol-2-yl)-1-{[(2S)-5-oxopyrrolidin-2-yl]methoxy}-7-(propan-2-yloxy)isoquinoline-6-carboxamide]: the results for the IC50 in assay [1] and in assay [2] were 230 nM and 2900 nM, respectively.

For the molecule `CC(C)Oc1cc2c(OC[C@@H]3CCC(=O)N3)ncc(-c3ccn(C)n3)c2cc1C(N)=O` [Example 4, 4-(1-Methyl-1H-pyrazol-3-yl)-1-{[(2S)-5-oxopyrrolidin-2-yl]methoxy}-7-(propan-2-yloxy)isoquinoline-6-carboxamide], the IC50 turned out to be 10 nM in assay [1] and 112 nM in assay [2].

Take `CC[C@@H]1CC(=O)N[C@@H]1COc1ncc(NS(=O)(=O)c2cn(C)c(C)n2)c2cc(C(N)=O)c(OC(C)C)cc12` [Example 14, 4-{[(1,2-Dimethyl-1H-imidazol-4-yl)sulfonyl]amino}-1-{[(2S,3R)-3-ethyl-5-oxopyrrolidin-2-yl]methoxy}-7-(propan-2-yloxy)isoquinoline-6-carboxamide]: the IC50 amounted to 15000 nM in assay [1] and 29000 nM in assay [2].

With `Cc1nc(-c2cnc(OC[C@@H]3CCC(=O)N3)c3cc(OC(C)C)c(C(N)=O)cc23)oc1C` [Example 7, 4-(4,5-Dimethyl-1,3-oxazol-2-yl)-1-{[(2S)-5-oxopyrrolidin-2-yl]methoxy}-7-(propan-2-yloxy)isoquinoline-6-carboxamide], the IC50 in assay [1] is 3.2 nM; in assay [2] it was 57 nM.

Regarding `CC[C@@H]1CC(=O)N[C@@H]1COc1ncc(NS(=O)(=O)c2cccnc2)c2cc(C(N)=O)c(OC(C)C)cc12` [Example 11, 1-{[(2S,3R)-3-Ethyl-5-oxopyrrolidin-2-yl]methoxy}-7-(propan-2-yloxy)-4-[(pyridin-3-ylsulfonyl)amino]isoquinoline-6-carboxamide], the IC50 in assay [1] was 1300 nM; in assay [2], above 100000 nM.

Regarding `Cc1cnc(-c2cnc(OC[C@@H]3CCC(=O)N3)c3cc(OC(C)C)c(C(N)=O)cc23)o1` [Example 9, 4-(5-Methyl-1,3-oxazol-2-yl)-1-{[(2S)-5-oxopyrrolidin-2-yl]methoxy}-7-(propan-2-yloxy)isoquinoline-6-carboxamide], the IC50 in assay [1] was 4.3 nM; in assay [2], 89 nM.

With `COc1cc2c(OCC34CC3CC(=O)N4)nccc2cc1C(N)=O` (racemic) [Example 29, 7-methoxy-1-[(3-oxo-2-azabicyclo[3.1.0]hex-1-yl)methoxy]isoquinoline-6-carboxamide], the IC50 was found to be 350 nM in assay [1] and 4200 nM in assay [2].

The values are drawn from patent publication US10174000B2, “Bicyclic-fused heteroaryl or aryl compounds as IRAK4 modulators” (PFIZER INC., priority 2015, dated 2019).
